Assay results reported in US20260283977A1, “ADIPOCYTE GROWTH INHIBITOR” (WATANABE OYSTER LABORATORY CO., LTD., priority 2023, published 2026).

Tests used:
Format in all cases: cell-based, mouse
3T3-L1 preadipocytes [1] = test: Number of cells in the differentiation process of 3T3-L1 preadipocytes; conditions: DHMBA 1 or 10 μM
Experimental: After the culture, adhering cells were separated from each well by adding an aseptic solution containing 0.05% trypsin and EDTA (0.1 ml per well) in PBS (Thermo Fisher Scientific, Waltham, MA, USA) not containing Ca^2+/Mg^2+ and incubating the cells for two minutes. Afterward, 0.9 ml of DMEM containing 10% FBS was added to each well to prepare cell suspensions. In order to measure the number of living cells, a medium (0.1 ml) containing suspension cells was mixed with 0.1 ml of 0.5% trypan blue staining solution. The living cells were counted under a microscope (Olympus MTV-3) using a cell counter (Line Seiki H-102P, Tokyo, Japan) and a hemocytometer (Sigma-Aldrich, St. Louis, Missouri). Two counts were averaged in each measurement. The number of cells was shown as the number per well of a culture plate. […]
First, to quantify the effect of DHMBA on the number of cells, a vehicle (1% ethanol as the final concentration) or DHMBA (1 or 10 μM) was added to the differentiation-inducing culture fluid on day 0 of differentiation starting culture or after two days. After zero to two days of the differentiation culture or after two to four days of the culture, the number of cells adhered to a culture dish was measured as described in the previous section.

3T3-L1 adipocytes [2] = test: Lipid accumulation in 3T3-L1 adipocytes (Oil Red O staining); conditions: DHMBA 0.1, 1, 10 or 100 μM on day 0 and after two days of differentiation culture
Experimental: In order to understand the influence of DHMBA on the differentiation of 3T3-L1 preadipocytes, 3T3-L1 preadipocytes (5×10^4 cells/ml per well of a 24-well plate) were cultured for three days, at which point they reached sub-confluence, in 10% bovine calf serum (BCS). After the cells reached sub-confluence (on day 0), the culture fluid was changed to a DMEM differentiation-inducing culture fluid containing 10% FBS, 1% P/S, 0.5 mM IBMX, 1 μM dexamethasone, and insulin (10 μg/ml), and the cells were cultured for another two days. […]
In an additional experiment to understand the effect of DHMBA on the content of lipids in 3T3-L1 adipocytes, a vehicle (1% ethanol as the final concentration) or DHMBA (0.1, 1, 10, or 100 μM) was included in the differentiation-inducing culture fluid to culture the cells from day 0 of the differentiation-inducing culture to four days later. In order to quantify the lipid content (triglycerides) after the cell culture, the cells in the 24-well plate were gently washed twice with PBS and fixed with 4% formaldehyde dissolved in PBS for 30 minutes. […] Furthermore, in order to quantify the lipid content, the Oil Red stain was extracted with isopropanol. […] The eluate was used to measure the absorbance at 510 nm with a spectrophotometer (μQuant, Bio-Tek Instruments).

3T3-L1 preadipocytes [3] = test: Cell death of sub-confluent 3T3-L1 preadipocytes (cell count); conditions: sub-confluent cells cultured another two days; DHMBA 0.1-1000 μM tested, effect at 1000 μM; FIG. 2C
Experimental: In an experiment to measure cell death, 3T3-L1 preadipocytes (1×10^5/ml per well of a 24-well plate) were cultured for three days in a DMEM culture fluid containing 10% BCS and 1% P/S. The cells that reached sub-confluence were cultured for another 48 hours in the presence of a vehicle (1% ethanol as the final concentration) or DHMBA (0.1, 1, 10, 100, or 1000 μM) to examine the variation in the number of cells.
After the culture, adhering cells were separated from each well by adding an aseptic solution containing 0.05% trypsin and EDTA (0.1 ml per well) in PBS (Thermo Fisher Scientific, Waltham, MA, USA) not containing Ca^2+/Mg^2+ and incubating the cells for two minutes. Afterward, 0.9 ml of DMEM containing 10% FBS was added to each well to prepare cell suspensions. In order to measure the number of living cells, a medium (0.1 ml) containing suspension cells was mixed with 0.1 ml of 0.5% trypan blue staining solution. The living cells were counted under a microscope (Olympus MTV-3) using a cell counter (Line Seiki H-102P, Tokyo, Japan) and a hemocytometer (Sigma-Aldrich, St. Louis, Missouri). Two counts were averaged in each measurement. The number of cells was shown as the number per well of a culture plate.

3T3-L1 adipocytes [4] = test: Adipogenesis in 3T3-L1 adipocytes cultured with inhibitors of intracellular signaling pathways (AdipoRed)
Experimental: (§1) In yet another experiment, to search for the involvement of intracellular signaling factors, the culture fluid was substituted with a culture fluid containing DMEM, which contained 10% FBS and insulin (10 μg/ml), and a vehicle (1% ethanol) or DHMBA (1 or 10 μM) two days after the differentiation culture. The cells were cultured for another two days in a culture fluid containing signaling inhibitory factors, such as genistein (1 or 10 μM), Wortmannin (10 or 100 nM), PD98059 (1 or 10 μM), or Bay 11-7082 (1 or 10 nM). After the cell culture, the amount of intracellular lipid (triglyceride) formation was quantified using AdipoRed Assay Reagent (Lonza, Walkersville, MD, USA) [19 to 21]. Fluorescence was measured at an excitation of 485 nm and an emission of 570 nm using a 96-well plate reader (μQuant, Bio-Tek Instruments).

3T3-L1 adipocytes [5] = test: Adipogenesis in 3T3-L1 adipocytes (AdipoRed Assay Reagent)
Experimental: 3T3-L1 preadipocytes (10^4 cells/0.2 ml per well of a 96-well plate) were cultured for three days, at which point they reached sub-confluence, in DMEM containing 10% BCS and 1% P/S. After the sub-confluence (on day 0), the cells were cultured in a differentiation-inducing culture fluid containing 10% FBS, 1% P/S, 0.5 mM IBMX, and 1 μM dexamethasone with the inclusion of a vehicle (1% ethanol as the final concentration) or DHMBA (0.1, 1, 10, or 100 μM). Two days later, the culture fluid was replaced with a DMEM culture fluid containing insulin (10 μg/ml) without containing 10% FBS or DHMBA, and then, the cells were cultured for another two days.
In another experiment, the cells were cultured in a differentiation culture fluid not containing DHMBA on day 0 of differentiation-inducing culture. Two days later, the culture fluid was replaced with a DMEM culture fluid containing 10% FBS and insulin (10 μg/ml) that contained any of a vehicle (1% ethanol as the final concentration) and DHMBA (0.1, 1, 10, or 100 μM), and then, the cells were cultured for another two days.
as §1

COc1c(O)cc(CO)cc1O [DHMBA, 3,5-dihydroxy-4-methoxybenzyl alcohol]
Number of cells, differentiation day 2 to 4 (3T3-L1 preadipocytes [1]; culture fluid containing insulin (10 μg/ml), another two days, FIG. 3C): not varied | Number of cells, differentiation day 0 to 2 (3T3-L1 preadipocytes [1]; differentiation-inducing culture fluid (IBMX, dexamethasone, insulin), two days, FIG. 3B): not varied | Lipid accumulation (Oil Red O stained images) (3T3-L1 adipocytes [2]; FIG. 4A): reduced lipid accumulation | Lipid (triglyceride) content in the cells (absorbance at 510 nm) (3T3-L1 adipocytes [2]; FIG. 4B): decrease was confirmed | Cell death (number of cells) (3T3-L1 preadipocytes [3]): reduced | Inhibition of adipogenesis in the presence of Bay 11-7082 (3T3-L1 adipocytes [4]; DHMBA 1 or 10 μM with Bay 11-7082 1 or 10 nM, FIG. 6D): further enhanced | Inhibition of adipogenesis in the presence of PD98059 (3T3-L1 adipocytes [4]; DHMBA 1 or 10 μM with PD98059 1 or 10 μM, FIG. 6C): further enhanced | Inhibition of adipogenesis in the presence of Wortmannin (3T3-L1 adipocytes [4]; DHMBA 1 or 10 μM with Wortmannin 10 or 100 nM, FIG. 6B): further enhanced | Adipogenesis in the presence of genistein (3T3-L1 adipocytes [4]; DHMBA 1 or 10 μM with genistein 1 or 10 μM, FIG. 6A): inhibited adipogenesis | Adipogenesis (intracellular lipid formation), DHMBA zero to four days after the differentiation (3T3-L1 adipocytes [5]; DHMBA 1, 10 or 100 μM (0.1 μM also tested), FIG. 5A): suppressed adipogenesis | Adipogenesis (intracellular lipid formation), DHMBA zero to two days after the differentiation (3T3-L1 adipocytes [5]; DHMBA 1, 10 or 100 μM, FIG. 5B): suppression was also observed | Adipogenesis (intracellular lipid formation), DHMBA two to four days after the differentiation (3T3-L1 adipocytes [5]; DHMBA 1, 10 or 100 μM, late stage, FIG. 5C): suppression was also observed
